# Assays:
# pancreatic trypsin = assay: Pancreatic trypsin immunohistochemistry on rat tissue sections (young, old, old-treated); type: in vivo; details: old rats (100 weeks), compared with old and young (16 weeks) rats
# Excerpt: (§1) Male Wistar rats (Harlan Sprague Dawley Inc., Indianapolis, IN) at maturity (4 months, 300 to 350 gm) and old age (24 months, 375 to 450 gm) were included in the study. The animals were maintained on standard laboratory chow (8604 Teklad rodent diet; Harlan Laboratories, Indianapolis, IN) without restriction and water ad libitum and maintained in separated room without pathogen-free conditions. […] A subgroup of old animals was given a serine protease inhibitor (tranexamic acid, 14 days) in drinking water (137 mM, exchanged daily) which at a minimum fluid consumption of 40 ml/day amounts to a minimum dose of 0.39 gm/kg/day for 350 gm body weight (BW).
# A femoral venous catheter was placed after general anesthesia (pentobarbital sodium, 50 mg/kg [Abbott Laboratories, North Chicago, IL], intramuscularly after local anesthesia with 2% lidocaine HCl [Hospira, Inc, Lake Forrest, IL]). […]
# To determine on the tissue sections the immunolabel density and distribution of serine proteases, pancreatic trypsin MoAb (D-1): sc-137077 (Santa Cruz) primary antibody was used, followed by secondary antibodies (MP-7601 for anti-rabbit IgG; MP-7602 for anti-mouse IgG; ImmPRESS Excel staining kit peroxidase). […] No counterstain was applied to facilitate quantitative label intensity measurements and since cellular and vascular structures are readily identified. […] All procedures were carried out under standardized conditions to permit quantitative comparison of label densities.
# Small intestine: Full thickness tissue blocks of the wall of proximal jejunum (3 by 5 mm) were fixed from all sides in 10% formaldehyde. Serine proteases were detected with primary and secondary antibodies labeled with DAB (Peroxidase Substrate Kit, ab64238, ABCAM).
# Images of the immunolabel density were recorded at different magnifications, from relatively low power overviews of the tissue (10× objective, numerical aperture 0.25) to higher magnification of single cells (at 60× oil immersion objective, numerical aperture 1.4). […]
# collagen = assay: Collagen fragment labeling with biotin conjugated collagen hybridizing peptides (B-CHP); type: in vivo, rat; details: old rats (100 weeks), two-week oral treatment, compared with old and young (16 weeks) rats
# Excerpt: as §1, with “(BW). […]” for “(BW).”
# Tissue sections were stained with B-CHP (stock solution, 150 mM; final applied solution 7.5. mM). […] The B-CHP label intensity on the sections was recorded by digital microscopy.
# (§2) Images of the immunolabel density were recorded at different magnifications, from relatively low power overviews of the tissue (10× objective, numerical aperture 0.25) to higher magnification of single cells (at 60× oil immersion objective, numerical aperture 1.4). The images were recorded under standard light conditions under fixed settings of the substage condenser with a digital camera (Spot Insight GIGABIT camera, Sterling Height), so that the camera serves as a quantitative light intensity meter. […]
# mucin = assay: Mucin-containing mucus layer of small intestine stained with alcian blue; type: in vivo, rat; details: old rats (100 weeks), two-week oral treatment; compared with old and young rats; FIG. 3B
# Excerpt: as §1, with “(BW). […]” for “(BW).”
# as §2, with “meter. Images were analyzed on a laboratory computer to minimize operator error (NIH Image, 1.61, public domain software, spatial resolution of 640×480 pixel).” for “meter.”
# amylase = assay: Amylase staining of epithelial cells of the small intestine; type: in vivo, rat; details: old rats (100 weeks), oral treatment for two weeks; compared with old and young rats; FIG. 3B
# Excerpt: as §1
structure (smiles),measurement,setting,value
NC[C@H]1CC[C@H](C(=O)O)CC1 [tranexamic acid],pancreatic trypsin accumulation in cardiac muscle,"pancreatic trypsin; two-week oral treatment (137 mM in drinking water), FIG. 1A",reduces pancreatic trypsin accumulation
same,pancreatic trypsin accumulation in brain,"pancreatic trypsin; two-week oral treatment, FIG. 2A",reduces pancreatic trypsin accumulation
same,pancreatic trypsin accumulation in intestine,"pancreatic trypsin; two-week oral treatment, FIG. 3A",reduces pancreatic trypsin accumulation in old rats (100 weeks) to similar levels seen in young rats
same,collagen fragmentation in cardiac muscle,collagen; FIG. 1B,reduces collagen fragmentation in cardiac muscle in old-treated rats below levels seen in old rats to levels similar to those seen in young rats
same,collagen fragmentation in brain,collagen; FIG. 2B,reduces collagen fragmentation in rat brain in old-treated rats below levels seen in old rats to levels similar to those seen in young rats
same,mucin label density in villi of small intestine,mucin,partially restored
same,increase in amylase in the small intestine of old rats,amylase,attenuated
